“Also recorded” adds a separate entry of the source.
Experiments:
HCV = conditions: previous study; cited from earlier work
flavivirus = conditions: endogenously produced and exogenously administered; Gizzi et al., 2018; cited from earlier work
HSV-1 = type: cell-based, Herpes Simplex Virus 1; conditions: mouse macrophages/BMDMs pre-treated with 1 mM ddhC; MOI 1 or 10; 24 hours; flow cytometry; preliminary
[1] = system: TLR-mediated Type 1 interferon signaling; test: TLR-mediated Type 1 interferon signaling in macrophages; type: cell-based
host cell physiology = conditions: cited from earlier work
WNV = conditions: previous study; cited from earlier work
DV = conditions: previous study; cited from earlier work
ZIKV = conditions: previous study; cited from earlier work
M. tuberculosis = M. tuberculosis growth in ddhC-stimulated macrophages; type: cell-based, Mycobacterium tuberculosis; conditions: ddhC-stimulated macrophages vs Vehicle or Cytidine; preliminary
Viperin expression = Viperin expression in Poly(I:C)-stimulated BMDMs (qPCR); conditions: 1 mM ddhC co-stimulated with 25 ug/mL Poly(I:C)
Vaccinia virus = type: cell-based
[2] = system: TLR-mediated NFkB activation; test: TLR-mediated NFkB activation, RAW264.7 NFkB reporter cells; type: cell-based; conditions: for TLR-mediated NFkB activation: RAW264.7 NFkB reporter, pre-treated overnight, 500 ng/mL LPS, 1 μg/mL PAM, or 1 μg/mL R848
LCMV = type: cell-based, lymphocytic choriomeningitis virus; conditions: BMDMs pre-treated with 1 mM ddhC; MOI 1 or 10; 24 hours; qPCR; preliminary

Nc1ccn([C@@H]2OC(COP(=O)(O)OP(=O)(O)OP(=O)(O)O)=C[C@H]2O)c(=O)n1 [ddhCTP, 3′-deoxy-3′, 4′-didehydro-CTP]
suppression of HCV (HCV): can suppress | flavivirus infection restriction (flavivirus): restricts | HSV-1 replication / infectivity (HSV-1): increases | TLR4-mediated Type 1 interferon induction ([1]; preliminary results): suppresses | cytotoxic effects on host cell physiology (host cell physiology): no cytotoxic effects | toxicity to the host (host cell physiology): minimal evidence of toxicity | suppression of WNV (WNV): can suppress | suppression of DV (DV): can suppress | suppression of ZIKV (ZIKV): can suppress

Nc1ccn([C@@H]2OC(CO)=C[C@H]2O)c(=O)n1 [ddhC]
flavivirus infection restriction (flavivirus): restricts | HSV-1 replication / infectivity (HSV-1): increases replication; also recorded: increasing | TLR-mediated Type 1 interferon signaling ([1]; macrophages, preliminary data): modulates | M. tuberculosis growth restriction (M. tuberculosis): lead to restriction; also recorded: restrict M. tuberculosis growth greater than those treated with Vehicle or Cytidine | toxicity to the host (host cell physiology): minimal evidence of toxicity | Poly(I:C)-induced Viperin upregulation (Viperin expression): dampened | Vaccinia virus infection (Vaccinia virus): negligible effects | TLR-mediated NFkB activation [2]: agonize | TLR-mediated NFkB signaling in macrophages ([2]; macrophages, preliminary data): modulates | LCMV replication (LCMV): suppresses replication

Nc1nc2c(ncn2[C@@H]2OC(CO)=C[C@H]2O)c(=O)[nH]1 [ddhG]
TLR-mediated NFkB activation [2]: agonize

From patent US20230138178A1, “Methods and Compositions for Producing a Heterologous Antiviral Compound in a Host Cell” (priority 2019, published 2023)
